From patent publication US11666580B2, “Mechanism of resistance to bet bromodomain inhibitors” (Dana-Farber Cancer Institute, Inc., priority 2015, dated 2023)

How the values were obtained:
[1] = tested on: patient-derived primary human TNBC xenografts; assay: Xenograft assay, patient-derived TNBC; format: in vivo, mice; settings: two weeks of JQ1, 50 mg/kg daily
Description: (§1) For xenograft assays 5-6-weeks old female CrTac:NCr-Foxn1^nu and NOD.Cg-Prkdc^scid Il2rg^tm1Sug/JicTac mice were purchased from Taconic. Tumors were induced by bilateral orthotopic mammary fat pad injection of 1×10^6 cells in 50% Matrigel (BD Biosciences) in DMEM/F12 or Medium 171 (except for IDC50-X cells, which were injected with 3% FBS and 4 mg/ml collagen gel in Medium 171). Animal experiments were conducted following protocol 11-023 approved by the Dana-Farber Cancer Institute Animal Care and Use Committee.

[2] = target: BRD4-MED1 association in SUM159 cells (Homo sapiens, UniProt O60885); settings: sensitive cells
Description: Cells were lysed five days after transfection with siRNAs in RIPA buffer. Proteins were resolved in SDS-polyacrylamide gels (4%-12%) and transferred to PVDF membranes by using a Tris-glycine buffer system. Membranes were blocked with 5% milk powder in 0.1% Tween20 in PBS (PBS-T) for 1 hr at room temperature followed by incubation with primary antibodies at 1:1000 dilution in 2.5% milk PBS-T. For immunoprecipitation, nuclear extracts were prepared as follow: 10×10^6 cells were resuspended in 5 ml Buffer A: 10 mM Tris pH 7.9, 1.5 mM MgCl2, 10 mM KCl, 0.05% NP-40, 1 mM DTT, and protease and phosphatase inhibitors. Cells were incubated on ice for 15 min and gently vortexed every 5 min. After centrifugation at 2,000 g for 5 min, pellets were suspended in 0.3 ml buffer B (20 mM Tris pH 7.9, 25% glycerol, 0.42 M NaCl, 1.5 mM MgCl2, 1 mM KCl, 0.5% NP40, 0.2 mM EDTA, 1 mM DTT, and protease and phosphatase inhibitors) and incubated for 5 min on ice. After centrifugation of the lysates at 14 g for 10 min at 4° C., supernatant was diluted with 0.6 ml buffer A, and added NP-40 to final 0.5% and treated with DNase I. The samples were then incubated at 4° C. overnight with BRD4 or Flag antibodies at 1:100 dilution and immunoprecipitates were collected on Dynabeads Protein G for 2 hr. […]

SUM159 and SUM149 cells = assay: RNA-seq following JQ1 treatment; format: cell-based, human; settings: different time points following JQ1 500 nM
Description: Quantifying changes in gene expression of SE proximal genes. Genes within 50 kb of SE in SUM159 or SUM149 were identified and filtered for expression status (>1 FPKM expression in any sample), and filtered to remove non poly-adenylated transcripts (e.g. microRNAs). For SUM159, log2 fold changes in gene expression at SE associated genes or all expressed genes was compared at 3, 12, and 24 hours post JQ1 treatment (FIG. 2F). For SUM149, comparisons were made at 12 hours post JQ1 treatment (Extended Data FIG. 3B). The statistical significance of differences between distributions of changes was also assessed using a Welch's two-tailed t test.

[3] = tested on: tumors derived from MDA-MB-231; assay: Xenograft assay, MDA-MB-231; format: in vivo, mice; settings: two weeks of JQ1, 50 mg/kg daily
Description: as §1

[4] = tested on: TNBC cells (SUM159 and MDA-MB-231); assay: Senescence β-galactosidase staining; format: cell-based, human; settings: JQ1 500 nM, 72 h
Description: (§2) Cell viability and growth assays (FIGS. 1A-1B, FIGS. 3A-3E, 3G, FIGS. 5D-5F, FIGS. 6C, 6E, 6I, FIG. 7A, FIG. 10D, FIGS. 14A-14C), cycle, apoptosis, and MDR assays were performed in triplicates and repeated 2-3 times. For cell proliferation assays, cells were plated at 500 cells per well in 96-well plates and treated the next day with inhibitors, DMSO or doxycycline (500 ng). Cells were cultured at 37° C. with 5% CO2 in the media described-above, and cell viability was measured using CellTiter-Glo three days after treatments. For cell growth assays, cells were plated at 5000 (SUM159) or 20000 (SUM149) cells per well in 6-well plates and treated the next day with inhibitors. Cells were counted every three days by cell counter. Cellular apoptosis was analyzed with an APC AnnexinV/7ADD Apoptosis Detection kit (BD Pharmingen). AnnexinV/7AAD assessments and cell cycle graphics were generated using FlowJo software V7.6.1 for Windows (Tree Star). Senescence Beta-gal staining was performed using Senescence β-Galactosidase staining kit from Cell signaling. Briefly, after JQ1 treatment (500 nM) for 72 h, SUM159 and MDA-MB-231 cells were fixed by Fixative Solution for 15 min, followed by β-Galactosidase solution incubation overnight at 37° C. The staining was checked under microscope for the development of blue color. […] The cells were analyzed by fluorescent microscope and FACS.

SUM159 cells = assay: Apoptosis (sub-G1 fraction and Annexin-V staining); format: cell-based, human; settings: prolonged exposure 48-72 hours, JQ1 500 nM
Description: as §2, with “FACS. […]” for “FACS.”

[5] = tested on: xenografts derived from SUM159R cells; assay: Xenograft assay, SUM159R (BBI-resistant SUM159); format: in vivo, mice; settings: JQ1 for 30 days
Description: as §1

Cc1sc2c(c1C)C(c1ccc(Cl)cc1)=N[C@@H](CC(=O)OC(C)(C)C)c1nnc(C)n1-2 [JQ1]
Tumor growth [1]: efficiently inhibited the growth of established tumors
Association of BRD4 with MED1 [2]: efficiently displaced BRD4 from MED1
Expression of super-enhancer associated genes versus all active genes (SUM159 and SUM149 cells): significantly more likely to be down-regulated
Tumor growth [3]: efficiently inhibited the growth of established tumors
Acidic β-galactosidase activity (senescence) [4]: markedly increased acidic β-galactosidase activity
Apoptotic response (sub-G1 fraction, Annexin-V staining) (SUM159 cells): elicited an apoptotic response
Tumor response to JQ1 treatment [5]: not responsive
